Assay results taken from article PMC3525792 (Bioorganic & medicinal chemistry letters, 2012).

Molecular target: EGFP-hSERT (UniProt P31645+P42212, F64L/H231L/S65T)
Format: cell-based, human

Which “labeling of EGFP-SERT in live cells in the presence of paroxetine” value (20 nM 8, 37°C, preincubation with 1 μM paroxetine 30 min) does the source give for CCN(CC)c1ccc2c(-c3ccc(S(=O)(=O)NCCCCCC(=O)NCCC(=O)Nc4cccc(-c5ccc6c(c5)COC6(CCCN(C)C)c5ccc(F)cc5)c4)cc3S(=O)(=O)[O-])c3ccc(=[N+](CC)CC)cc-3oc2c1 (centres unmarked) [compound 8] here?
Its value is “no fluorescence was observed at the cell surface in the red channel”.

And the “labeling of EGFP-SERT in live cells” value (20 nM 8, 60 min at 37°C, HEK293 EGFP-hSERT, without paroxetine)?
The value was “labels SERT with high specificity”.
